pIC50: −log10 of the molar value.
Molecular target: oxoeicosanoid receptor 1 (OXER1) (Homo sapiens, UniProt Q8TDS5)
Assay: inhibition of forskolin-stimulated cAMP in CHO-K1 cells stably expressing human OXER1 (agonist); also displaces [3H]testosterone from DU-145 membranes
Format: cell-based

oxoeicosanoid receptor 1 (OXER1), sequence (Q8TDS5 whole entry): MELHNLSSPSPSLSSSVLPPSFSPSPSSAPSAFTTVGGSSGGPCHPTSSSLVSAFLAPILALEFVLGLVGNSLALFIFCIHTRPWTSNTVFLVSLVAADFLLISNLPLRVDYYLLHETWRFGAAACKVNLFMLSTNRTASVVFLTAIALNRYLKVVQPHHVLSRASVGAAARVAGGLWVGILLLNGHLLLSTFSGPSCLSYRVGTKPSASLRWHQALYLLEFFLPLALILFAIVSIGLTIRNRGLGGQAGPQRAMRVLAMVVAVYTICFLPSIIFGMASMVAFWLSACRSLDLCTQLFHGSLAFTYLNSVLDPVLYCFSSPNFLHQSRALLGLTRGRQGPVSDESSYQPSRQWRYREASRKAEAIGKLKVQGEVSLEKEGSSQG

CCCCC/C=C\C/C=C\C/C=C\C=C\C(=O)CCCC(=O)O [5-oxoETE, 5-oxo-6E,8Z,11Z,14Z-eicosatetraenoic acid]
pIC50: ~8.70
